Reference: PubChem BioAssay (NCI)
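GI50 is the concentration that inhibits growth by half. TGI denotes the concentration required for complete inhibition of growth.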

How the values were obtained:
Assay in all cases: DTP human tumour cell line panel, 384-well format
786-0 renal = system: 786-0 renal
A498 renal = system: A498 renal
ACHN renal = system: ACHN renal
CAKI-1 renal = system: CAKI-1 renal
COLO 205 colon = system: COLO 205 colon
DU-145 prostate = system: DU-145 prostate
EKVX NSCLC = system: EKVX NSCLC
HCT-15 colon = system: HCT-15 colon
HOP-62 NSCLC = system: HOP-62 NSCLC
HOP-92 NSCLC = system: HOP-92 NSCLC
HT29 colon = system: HT29 colon
IGROV1 ovarian = system: IGROV1 ovarian
KM12 colon = system: KM12 colon
LOX IMVI melanoma = system: LOX IMVI melanoma
M14 melanoma = system: M14 melanoma
MALME-3M melanoma = system: MALME-3M melanoma
NCI-H226 lung = system: NCI-H226 lung
NCI-H23 lung = system: NCI-H23 lung
NCI/ADR-RES ovarian = system: NCI/ADR-RES ovarian
OVCAR-4 ovarian = system: OVCAR-4 ovarian
OVCAR-5 ovarian = system: OVCAR-5 ovarian
SF-295 CNS = system: SF-295 CNS
SK-MEL-28 melanoma = system: SK-MEL-28 melanoma
SN12C renal = system: SN12C renal
SNB-75 CNS = system: SNB-75 CNS
TK-10 renal = system: TK-10 renal
UACC-257 melanoma = system: UACC-257 melanoma
UACC-62 melanoma = system: UACC-62 melanoma
UO-31 renal = system: UO-31 renal

Work on O=C(c1c(F)ccc(NS(=O)(=O)N2CC[C@@H](F)C2)c1F)c1c[nH]c2ncc(-c3cnc(C4CC4)nc3)cc12 yielded a GI50 (786-0 renal) of 5.62 µM, a TGI (786-0 renal) of 29.7 µM and a GI50 (A498 renal) of 6.38 µM. The TGI (A498 renal) was 24.3 µM, the GI50 (ACHN renal) was 4.77 µM and the TGI (ACHN renal) was 20.7 µM. The GI50 (CAKI-1 renal) was 3.09 µM, the TGI (CAKI-1 renal) was 9.22 µM and the GI50 (COLO 205 colon) was < 0.01 µM. The TGI (COLO 205 colon) was 0.021 µM, the GI50 (DU-145 prostate) was 4.58 µM and the TGI (DU-145 prostate) was 17.7 µM. The GI50 (EKVX NSCLC) was 8.14 µM, the TGI (EKVX NSCLC) was 21.6 µM and the GI50 (HCT-15 colon) was 4.8 µM. The TGI (HCT-15 colon) was 20.9 µM, the GI50 (HOP-62 NSCLC) was 5.2 µM and the TGI (HOP-62 NSCLC) was 20.6 µM. For the same compound, the GI50 (HOP-92 NSCLC) was 4.13 µM, the TGI (HOP-92 NSCLC) was 25.1 µM and the GI50 (HT29 colon) was 0.015 µM. The TGI (HT29 colon) was 14.5 µM, the GI50 (IGROV1 ovarian) was 3.08 µM and the TGI (IGROV1 ovarian) was 13.5 µM. It also gave a GI50 (KM12 colon) of 6.17 µM, a TGI (KM12 colon) of 18.8 µM and a GI50 (LOX IMVI melanoma) of 0.0301 µM. For the same compound, the TGI (LOX IMVI melanoma) was 4.13 µM, the GI50 (M14 melanoma) was < 0.01 µM and the TGI (M14 melanoma) was 0.0149 µM. For the same compound, the GI50 (MALME-3M melanoma) was < 0.01 µM, the GI50 (NCI-H226 lung) was 5.36 µM and the TGI (NCI-H226 lung) was 18 µM. For the same compound, the GI50 (NCI-H23 lung) was 4 µM, the TGI (NCI-H23 lung) was 15.3 µM and the GI50 (NCI/ADR-RES ovarian) was 19 µM. The TGI (NCI/ADR-RES ovarian) was 41.3 µM, the GI50 (OVCAR-4 ovarian) was 11.2 µM and the TGI (OVCAR-4 ovarian) was 27.6 µM. For the same compound, the GI50 (OVCAR-5 ovarian) was 8.29 µM, the TGI (OVCAR-5 ovarian) was 27.7 µM and the GI50 (SF-295 CNS) was 5.27 µM. For the same compound, the TGI (SF-295 CNS) was 19.8 µM, the GI50 (SK-MEL-28 melanoma) was < 0.01 µM and the TGI (SK-MEL-28 melanoma) was 0.0127 µM. The GI50 (SN12C renal) was 7.66 µM, the TGI (SN12C renal) was > 100 µM and the GI50 (SNB-75 CNS) was 5.65 µM. It also gave a TGI (SNB-75 CNS) of 17.9 µM, a GI50 (TK-10 renal) of 11.8 µM and a TGI (TK-10 renal) of 35.4 µM. The GI50 (UACC-257 melanoma) was < 0.01 µM, the TGI (UACC-257 melanoma) was 0.0246 µM and the GI50 (UACC-62 melanoma) was < 0.01 µM. For the same compound, the TGI (UACC-62 melanoma) was 0.0116 µM, the GI50 (UO-31 renal) was 8.46 µM and the TGI (UO-31 renal) was 23.5 µM.
